pIC50: −log10 of the molar value.
System: LTB4 production in fresh human whole blood
Assay: FLAP Whole Blood Assay (Test B), inhibition of LTB4 production
Type: cell-based
Details: method B: 4 h incubation at 37° C., calcium ionophore A23187 stimulation
Protocol: FLAP Whole Blood Assay (Test B)
Compounds were tested for the inhibition of LTB4 production in fresh human whole blood obtained by venapuncture using heparin to prevent clotting. 1.5 μL compounds or DMSO carrier were dispensed into the wells of a 96-well deep-well plate in 3-fold dilution series. 500 μL heparnised whole blood was then added followed by incubation at 37° C. for 30 min (method A) or 4 h (method B). 100 μL blood was subsequently transferred in triplicate to pre-dispensed 0.5 μL 2 mM calcium ionophore (calcimycin; A23187) in a second 96-well plate. Following incubation at 37° C. for 20 min, the assays were stopped by adding 10 μL of stop solution (100 mM EGTA, pH 7.4) and the plate was transferred to ice. The plate was centrifuged at 3000 rpm at 4° C. for 10 min and 10 μL plasma was transferred to a fresh 96 well plate containing 90 μL pre-dispensed EIA assay buffer (0.1 M phosphate buffer+0.1% BSA). LTB4 was then measured using reagents from a commercial EIA (Cayman Chemicals). […] Inhibition of LTB4 production was defined as the LTB4 level in the presence of a given concentration of test compound expressed as a % of the LTB4 level in the presence of DMSO. IC50 values were determined by plotting % inhibition versus log compound concentration and using a one site dose response model. […]

`Cc1cc(-c2ccc(C(=O)[C@@H]3CCCC[C@H]3C(=O)Nc3cnn4c3C(=O)NCC4)cc2)[nH]n1` [Compound (I), (1R,2R)-2-[4-(3-methyl-1H-pyrazol-5-yl)benzoyl]-N-(4-oxo-4,5,6,7-tetrahydropyrazolo[1,5-a]pyrazin-3-yl)cyclohexanecarboxamide] showed a pIC50 of 7.40.

Reference: patent publication US10689387B2, “Crystalline form of (1R,2R)-2-[4-(3-methyl-1H-pyrazol-5-yl)benzoyl]-N-(4-oxo-4,5,6,7-tetrahydropyrazolo[1,5-A]pyrazin-3-yl)cyclohexanecarboxamide” (AstraZeneca AB, priority 2016, dated 2020)
